Measurements from PubChem BioAssay (NCI).
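Step 1: Grow cells in 96-well plates. Step 2: Expose to compound for 48 hours at 5 concentrations. Step 3: Interpolate endpoints linearly; if unreached, use highest concentration. The concentration for full growth arrest is given as TGI.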 Where a SMILES comes first, the peptide text is derived from it. [ ]: non-standard residue; d: D form. The star is where a group is joined. ξ: configuration not given here. ξF = NC(Cc1ccccc1)C(=O)O; Cbz = O=C(OCc1ccccc1)*

Key:
Assay in all cases: NCI-60 cell line screen, 48 h
BT-549 breast = system: BT-549 breast
HCT-116 colon = system: HCT-116 colon
HCT-15 colon = system: HCT-15 colon
HT29 colon = system: HT29 colon
MCF7 breast = system: MCF7 breast
MDA-MB-435 = system: MDA-MB-435
OVCAR-3 ovarian = system: OVCAR-3 ovarian
OVCAR-8 ovarian = system: OVCAR-8 ovarian
SK-MEL-5 melanoma = system: SK-MEL-5 melanoma
SK-OV-3 ovarian = system: SK-OV-3 ovarian
UACC-62 melanoma = system: UACC-62 melanoma

| SMILES | TGI (BT-549 breast) | TGI (HCT-116 colon) | TGI (HCT-15 colon) | TGI (HT29 colon) | TGI (MCF7 breast) | TGI (MDA-MB-435) | TGI (OVCAR-3 ovarian) | TGI (OVCAR-8 ovarian) | TGI (SK-MEL-5 melanoma) | TGI (SK-OV-3 ovarian) | TGI (UACC-62 melanoma) |
| --- | --- | --- | --- | --- | --- | --- | --- | --- | --- | --- | --- |
| O=C(NCCN(CCNC(=O)c1cccc(O)c1O)CCNC(=O)c1cccc(O)c1O)c1cccc(O)c1O | > 100 µM | > 100 µM | > 100 µM | > 100 µM | > 100 µM | > 100 µM | > 40.2 µM | 49.4 µM | > 55.8 µM | > 100 µM | 48 µM |
| C=CCC(CCC(C)=O)(C(=O)OCC)C(=O)OCC | > 100 µM | > 100 µM | > 100 µM | > 100 µM | > 100 µM | > 100 µM | > 100 µM | > 100 µM | > 100 µM | > 100 µM | > 100 µM |
| Cc1c(C)c2c(c(N)c1C#N)C(=O)N(Cc1ccc(S(N)(=O)=O)cc1)C2=O | > 100 µM | > 92.5 µM | > 100 µM | > 100 µM | > 100 µM | > 100 µM | > 63.2 µM | > 35.7 µM | > 100 µM | > 100 µM | > 100 µM |
| COC(=O)/C=C(\C(=O)OC)c1cc(C)c2cc(C(C)C)ccc(C)c1-2 | > 100 µM | > 100 µM | 27.5 µM | 26.7 µM | 72.8 µM | > 100 µM | > 100 µM | > 100 µM | 80 µM | > 100 µM | > 100 µM |
| N#Cc1c(NC(=O)C(F)(F)F)sc2c3c(=O)c4ccccc4c(=O)c=3oc3ccccc3c12 | 53.3 µM | 29.1 µM | 49.7 µM | 41.6 µM | > 89.9 µM | 41.4 µM | > 80.1 µM | > 56 µM | 26.6 µM | 77.2 µM | 26 µM |
| NS(=O)(=O)c1nnc(NC(=S)NC(=O)Nc2ccc(Cl)c(Cl)c2)s1 | 50.2 µM | 44.3 µM | 48.9 µM | 71.9 µM | > 100 µM | 41.9 µM | 62 µM | 69.7 µM | 49 µM | 62.1 µM | 33.1 µM |
| N#Cc1sc2nc3ccccc3n2c1N | > 100 µM | > 100 µM | > 100 µM | > 100 µM | > 100 µM | > 100 µM | > 100 µM | > 100 µM | > 100 µM | > 100 µM | > 100 µM |
| Cc1ccc(N=N/C(=N/NC(=O)c2ccccc2)c2ccc(N(CCC#N)CCC#N)cc2C)cc1 | > 100 µM | > 100 µM | > 100 µM | 53.7 µM | > 100 µM | > 100 µM | > 100 µM | > 100 µM | > 100 µM | > 100 µM | > 100 µM |
| CN=c1sc2c(n1C)C(=O)c1ccccc1C2=O | 3.58 µM | 9.1 µM | 4.82 µM | 10.4 µM | 3.8 µM | 0.374 µM | 11.3 µM | 15.3 µM | 6.85 µM | 77.9 µM |  |
| CCOC(=O)CNC(=O)C(Cc1ccccc1)NC(=O)OCc1ccccc1 (stereo not drawn) (Cbz-[ξF]-Gly-OEt) | > 100 µM | > 100 µM | > 100 µM | > 100 µM | > 100 µM | > 100 µM | > 100 µM | > 100 µM | > 100 µM | > 100 µM |  |
| COc1cc2nc(Cl)nc(NS(=O)(=O)c3cc4ccccc4s3)c2cc1OC | 57.9 µM | > 100 µM | > 100 µM | 88.9 µM | > 100 µM | 54.5 µM | 44.7 µM | > 100 µM | 37.9 µM | 98.5 µM | 39.3 µM |
| Cc1ccc(OCC2OC(n3cnc4c(Cl)nc(Nc5cc(Cl)cc(Cl)c5)nc43)CC2Oc2ccc(C)cc2)cc1 (stereo not drawn) | > 100 µM | > 100 µM | > 100 µM | > 100 µM | > 100 µM | > 100 µM | > 100 µM | > 100 µM | > 100 µM | > 100 µM | > 100 µM |
| Cn1c(CNc2ccc(-c3n[nH]c(=S)n3C)cc2)n[nH]c1=S | > 100 µM | > 100 µM | > 100 µM | > 100 µM | > 100 µM | > 100 µM | > 100 µM | > 100 µM | > 100 µM | > 100 µM |  |
| [B]C(=O)NC(CC(C)C)C(=O)NCC(=O)NC1c2ccsc2C(=O)C1O (stereo not drawn) (tested in a mixture with another compound) | > 100 µM | > 100 µM | > 100 µM | > 100 µM | > 100 µM | > 100 µM | > 100 µM | > 100 µM | > 100 µM | > 100 µM | > 100 µM |
| CCOC(=O)c1cn(CC)c(=O)n2c1nc1ccccc12 | > 100 µM | > 100 µM | > 100 µM | > 100 µM | > 100 µM | > 100 µM | > 100 µM | > 100 µM | > 100 µM |  | > 100 µM |
| COc1ccc(-c2oc3cc(-c4cc5oc(-c6ccc(OC)cc6)c(-c6ccc(OC)cc6)c5cc4OC)c(OC)cc3c2-c2ccc(OC)cc2)cc1 | > 100 µM | > 100 µM | > 100 µM | > 100 µM | > 100 µM | > 100 µM | > 100 µM | > 100 µM | > 100 µM | > 100 µM | > 100 µM |
| O=C(Nn1c(-c2ccccc2)nc2ccccc2c1=O)c1ccc(Cl)cc1 | > 100 µM | > 100 µM | > 100 µM | > 100 µM | > 100 µM | > 100 µM | > 100 µM | > 100 µM | > 100 µM | > 100 µM | > 100 µM |
| CC(=O)c1ccc(N=NN2CCCC2)cc1 | > 100 µM | > 100 µM | > 100 µM |  | > 100 µM | > 100 µM | > 100 µM | > 100 µM | > 100 µM | > 100 µM | > 100 µM |
| Cc1cc(O)c(/C=N/C(N)=S)c(=O)o1 | > 100 µM | > 100 µM | > 100 µM |  | > 100 µM | > 100 µM | > 100 µM | > 100 µM | > 100 µM | > 100 µM | > 100 µM |
